The test system of series [1] is dengue virus type 2. Description: Antiviral activity against Dengue virus type 2 NGC infected in African green monkey Vero B cells assessed as reduction in virus yield. It counts as functional, organism-based, Thailand/NGS-C/1944.
The nature of series [2]: Cytotoxicity in African green monkey Vero B cells assessed as reduction in cell viability by MTS assay. The format is cell-based. The following applies: chlorocebus aethiops. (In general: Formazan colour is commonly taken as a measure of viable cells.)
A short description of series [3]: Selectivity index, ratio of CC50 for African green monkey Vero B cells to EC50 for Dengue virus type 2 NGC infected in African green monkey Vero B cells. The following applies: read-out: Ratio CC50/EC50. The format is toxicity.
Series [4] concerns Dengue virus. Description: Antiviral activity against Dengue virus. It counts as functional, organism-based.
Series [5] has as its system Zika virus. Description: Antiviral activity against Zika virus. It counts as functional, organism-based.
Series [6] has as its system Zika virus. As to the kind of experiment: Antiviral activity against Zika virus MR766 infected in African green monkey Vero E6 cells assessed as reduction in virus yield. The format is functional, organism-based. The following applies: MR766, Vero C1008.
Series [7] can be described thus: Cytotoxicity in African green monkey Vero E6 cells assessed as reduction in cell viability by MTS assay. It counts as cell-based. The following applies: chlorocebus sabaeus, Vero E6 cells (Vero C1008).
Series [8] is described as follows: Selectivity index, ratio of CC50 for African green monkey Vero E6 cells to EC50 for Zika virus MR766 infected in African green monkey Vero E6 cells. It counts as toxicity, Vero C1008. The note with it: read-out: Ratio CC50/EC50.
Series [9] has as its system dengue virus type 2. As to the kind of experiment: Potency index, ratio of EC50 for RBV to EC50 for test compound for antiviral activity against Dengue virus type 2 NGC infected in African green monkey Vero B cells assessed as reduction in virus yield. The format is functional, Thailand/NGS-C/1944.
The test system of series [10] is Zika virus. Description: Potency index, ratio of EC50 for 7DMA to EC50 for test compound for antiviral activity against Zika virus MR766 infected in African green monkey Vero E6 cells assessed as reduction in virus yield. The format is functional, Vero C1008.
Setting [11] is: Dengue virus, Thailand/NGS-C/1944, Vero B, read-out: EC50.

The source of these data is ChEMBL document CHEMBL4339220, “Scaffold Morphing Approach To Expand the Toolbox of Broad-Spectrum Antivirals Blocking Dengue/Zika Replication” (ACS Med Chem Lett, 2019).

Turning to `NS(=O)(=O)c1ccc(Nc2nc(N3CCOCC3)nc3[nH]cnc23)cc1`, the EC50 (as a rule, the concentration giving half of the maximal effect) in [1] is on record as “Not Active”. Besides, the CC50 (usually the concentration at which the toxic effect on the cells reaches its halfway point) in [2] came to 373 µM.

On to `OCCNc1nc(Nc2cccc(O)c2)c2nc[nH]c2n1`, for which the EC50 in [1] (setting [11]) is 7.4 µM. Further, the 50% cytotoxic concentration (CC50) in series [2] was above 175 µM. In addition, the selectivity ratio in [3] was above 24.

Turning to `O=C1OCc2c(Nc3cccc(O)c3)nc(N3CCOCC3)nc21`, in series [1] (setting [11]), the EC50 was above 128 µM. Besides, the CC50 in [2] was above 128 µM.

As for `Oc1cccc(Nc2nc(N3CCOCC3)nc3[nH]cnc23)c1`, the EC50 in [4] and in [1] (setting [11]) was 40.6 µM in each case. The half-maximal cytotoxic concentration (CC50) in series [2] stood at 122 µM. In series [3], the selectivity ratio came to 3.

For the compound `O=C1c2nc(N3CCOCC3)nc(Nc3cccc(O)c3)c2CN1CCc1ccccc1`, in series [1] (setting [11]), the EC50 amounted to 70.7 µM. For the same compound, the CC50 in series [2] is above 116 µM.

For the compound `Oc1cccc(Nc2nc(NCCOc3ccccc3)nc3[nH]cnc23)c1`, the EC50 in [4] came out at 10 µM; in series [5] it was 16.7 µM; in [1] (setting [11]), 10 µM; in series [6], 16.7 µM. The figures for the CC50 in [2] and in [7] were 69.4 µM and above 124 µM, respectively. Besides, the values for the selectivity ratio in [3] and in [8] were 6.9 and above 7.4, respectively.

With `O=C(NCCOc1ccccc1)c1nc(N2CCOCC2)nc(Nc2cccc(O)c2)c1CO`, in [1] (setting [11]), the EC50 amounted to 62.1 µM. Moreover, the CC50 in series [2] came to 73.3 µM. The selectivity ratio in series [3] was 1.2.

As for `O=C1c2nc(N3CCOCC3)nc(Nc3cccc(O)c3)c2CN1CCOc1ccccc1`, in [1] (setting [11]), the EC50 was determined as 20.6 µM. In addition, the CC50 in series [2] was above 100 µM. Also, the selectivity ratio in series [3] is above 4.9.

In the case of `COc1ccc(CN2Cc3c(Nc4cccc(O)c4)nc(N4CCOCC4)nc3C2=O)cc1`, the EC50 in [1] (setting [11]) is above 112 µM. The CC50 in series [2] is above 112 µM.

With `CCCCCOCc1c(Nc2ccc(S(N)(=O)=O)cc2)nc(N2CCOCC2)nc1C(=O)NCCOc1ccccc1`, the results for the EC50 in [1] (setting [11]) and in series [6] were 1.82 µM and 2.04 µM, respectively. Also, the CC50 in series [2] and in series [7] was above 83.5 µM in each case. Besides, the selectivity ratio is above 46 in series [3] and above 41 in series [8]. Further, the figures for the “Ratio EC50” value in series [9] and in series [10] were 6 and 3, respectively.

As for `CCCCCOCc1c(Nc2cccc(O)c2)nc(N2CCOCC2)nc1C(=O)NCc1ccc(C(F)(F)F)cc1`, the figures for the EC50 in series [1] (setting [11]) and in series [6] were 10.9 µM and 13.9 µM, respectively. Besides, the CC50 in series [2] worked out at 32.8 µM; in series [7], 48.2 µM. The selectivity ratio was found to be 3 in [3] and 3.5 in series [8].

In the case of `O=C(NCCc1ccccc1)c1nc(N2CCOCC2)nc(Nc2cccc(O)c2)c1CO`, in [1] (setting [11]), the EC50 stood at 20.7 µM. Also, in series [2], the CC50 came out at 64.5 µM. Further, the selectivity ratio in series [3] came out at 3.1.

In the case of `NS(=O)(=O)c1ccc(Nc2nc(N3CCOCC3)nc(C(=O)NCc3ccccc3)c2CO)cc1`, the EC50 in series [1] (setting [11]) is above 100 µM. Besides, in series [2], the CC50 is above 100 µM.

With `COc1ccc(CNC(=O)c2nc(N3CCOCC3)nc(Nc3cccc(O)c3)c2CO)cc1`, the EC50 in series [1] (setting [11]) is above 107 µM. In series [2], the CC50 is above 107 µM.

For `CCCCCOCc1c(Nc2ccc(S(N)(=O)=O)cc2)nc(N2CCOCC2)nc1C(=O)NCc1ccccc1`, the EC50 in series [1] (setting [11]) is 1 µM; in series [6] it was above 87.9 µM. For the same compound, the CC50 in [2] and in series [7] was above 87.9 µM throughout. Also, in series [3], the selectivity ratio is above 88.

As to `O=C(NCc1ccccc1)c1nc(N2CCOCC2)nc(Nc2cccc(O)c2)c1CO`, in [1] (setting [11]), the concentration for a half-maximal effect (EC50) is above 115 µM. Also, in [2], the CC50 is above 115 µM.

`CCCCCOCc1c(Nc2ccc(S(N)(=O)=O)cc2)nc(N2CCOCC2)nc1C(=O)NCc1ccc(OC)cc1`: the EC50 in series [1] (setting [11]) was above 83.5 µM. Moreover, in series [2], the cytotoxic concentration (CC50) was above 83.5 µM.

Regarding `COc1ccc(CN2Cc3c(Nc4ccc(S(N)(=O)=O)cc4)nc(N4CCOCC4)nc3C2=O)cc1`, the EC50 in series [1] (setting [11]) is above 97.9 µM. For the same compound, in series [2], the CC50 is above 97.9 µM.

Regarding `CCCCCOCc1c(Nc2cccc(O)c2)nc(N2CCOCC2)nc1C(=O)NCc1ccccc1`, the values for the EC50 in series [1] (setting [11]) and in [6] were 20.7 µM and 57.8 µM, respectively. Also, the CC50 is 39.4 µM in [2] and above 98.9 µM in series [7]. Further, the selectivity ratio in [3] was 1.9; in series [8], above 1.7.

For `NS(=O)(=O)c1ccc(Nc2nc(N3CCOCC3)nc3c2CN(CCOc2ccccc2)C3=O)cc1`, the EC50 in series [1] (setting [11]) was 12.2 µM; in series [6], above 97.9 µM. The CC50 in series [2] and in [7] was above 97.9 µM each time. For the same compound, the selectivity ratio in series [3] was above 8.

As for `O=C1c2nc(N3CCOCC3)nc(Nc3cccc(O)c3)c2CN1Cc1ccccc1`, in series [1] (setting [11]), the 50% effective concentration (EC50) was determined as 100 µM. In addition, the CC50 in series [2] is above 120 µM.

On to `NS(=O)(=O)c1ccc(Nc2nc(N3CCOCC3)nc3c2CN(Cc2ccccc2)C3=O)cc1`, for which the results for the EC50 in series [1] (setting [11]) and in series [6] were 21.6 µM and above 104 µM, respectively. The CC50 in [2] and in [7] was above 104 µM throughout. Besides, the selectivity ratio in series [3] was above 4.8.

`NS(=O)(=O)c1ccc(Nc2nc(N3CCOCC3)nc3c2COC3=O)cc1`: the EC50 in series [1] (setting [11]) is above 128 µM. For the same compound, the CC50 in [2] is above 128 µM.

Turning to `C[C@@]1(O)[C@H](O)[C@@H](CO)O[C@H]1n1ccc2c(N)ncnc21` [BETA-2'-C-METHYL-7-DEAZA-ADENOSINE], the EC50 in series [5] was found to be 9.6 µM; in series [6], 5.7 µM. The CC50 in series [7] was above 357 µM. The selectivity ratio in series [8] is above 64.

In the case of `NC(=O)c1ncn([C@@H]2O[C@H](CO)[C@@H](O)[C@H]2O)n1` [RIBAVIRIN], the results for the EC50 in series [4], in series [5] and in [1] (setting [11]) were 11.9 µM, 12 µM and 11.9 µM, respectively. For the same compound, the CC50 in [2] is above 409 µM. Further, in [3], the selectivity ratio is above 34.
